Activity calls are given as the source filed them. No cut-off for these calls is given here.
Columns and labels:
[1] = test system: Mitochondria; assay: Antioxidant activity in goat cardiac mitochondria assessed as reversal of CuCl2/ascorbic acid-induced reduction in GSH level at 33 uM after 1 hr by DTNB reagent based method relative to control; type: functional, subcellular; conditions: Capra hircus, Heart, Mitochrondria
[2] = Inhibition of alpha-ketoglutarate dehydrogenase in goat cardiac mitochondria assessed as effect on Vmax at 66 uM using alpha-ketoglutarate as substrate after 1 hr by Lineweaver-Burk double reciprocal plot analysis; parameters: species or system Capra hircus, Heart
[3] = test system: Mitochondria; assay: (§1) Protective activity against CuCl2/ascorbic acid-induced apoptotic alteration in goat cardiac mitochondria assessed as reversal of CuCl2/ascorbic acid-induced reduction in cytochrome c oxidoreductase activity incubated for 1 hr and measured at 10 secs time interval for 90 secs by spectrophotometric analysis; type: functional, subcellular; conditions: Capra hircus; Heart; Mitochrondria
[4] = test system: Mitochondria; assay: as §1, with “oxidase” for “oxidoreductase”, “at 66 uM” for “incubated for 1 hr and”, “analysis relative to control” for “analysis”; type: functional, subcellular; conditions: Capra hircus, Heart, Mitochrondria
[5] = test system: Mitochondria; assay: Protective activity against CuCl2/ascorbic acid-induced apoptotic alteration in goat cardiac mitochondria assessed as reversal of CuCl2/ascorbic acid-induced reduction in cytochrome c oxidase activity at 33 uM incubated for 1 hr and measured at 10 secs time interval for 90 secs by spectrophotometric analysis relative to control; type: functional, subcellular; conditions: Capra hircus, Heart, Mitochrondria
[6] = test system: Mitochondria; assay: Antioxidant activity in goat cardiac mitochondria assessed as inhibition of CuCl2/ascorbic acid-induced protein carbonyl content at 66 uM after 1 hr by DNPH assay relative to control; type: functional, subcellular; conditions: Capra hircus, Heart, Mitochrondria
[7] = test system: Mitochondria; assay: Antioxidant activity in goat cardiac mitochondria assessed as reversal of CuCl2/ascorbic acid-induced reduction in PDH level at 16.5 uM using sodium pyruvate as substrate after 1 hr spectrophotometric analysis (reference value: 66.25%); type: functional, subcellular; parameters: scale not given: the % may be the effect or the level left; conditions: Capra hircus, Heart, Mitochrondria
[8] = Binding affinity to ascorbate assessed as decrease in heat change at 66 uM in presence of ascorbic acid by isothermal titration calorimetry
[9] = test system: Mitochondria; assay: as §1, with “at 33 uM” for “incubated for 1 hr and”, “analysis (reference value: 47.82%)” for “analysis”; type: functional, subcellular; parameters: scale not given: the % may be the effect or the level left; conditions: Capra hircus, Heart, Mitochrondria
[10] = test system: Mitochondria; assay: Antioxidant activity in goat cardiac mitochondria assessed as inhibition of CuCl2/ascorbic acid-induced manganese superoxide dismutase at 8.25 uM after 1 hr by pyrogallol autoxidation method relative to control; type: functional, subcellular; conditions: Capra hircus, Heart, Mitochrondria
[11] = Effect on PDH levels in goat cardiac mitochondria at 8.25 to 66 uM using sodium pyruvate as substrate after 1 hr by spectrophotometric analysis; type: ADME, subcellular, Capra hircus, Heart, Mitochrondria
[12] = test system: Mitochondria; assay: Protective activity in goat cardiac mitochondria assessed as inhibition of CuCl2/ascorbic acid-induced perforated surface at 66 uM incubated for 1 hr by scanning electron microscopy; type: functional, subcellular; conditions: Capra hircus, Heart, Mitochrondria
[13] = test system: Mitochondria; assay: Antioxidant activity in goat cardiac mitochondria assessed as inhibition of CuCl2/ascorbic acid-induced lipid peroxidation at 8.25 uM after 1 hr by thiobarbituric acid based UV-Visible spectrophotometric method (reference value: 60.11%); type: functional, subcellular; conditions: Capra hircus, Heart, Mitochrondria
[14] = species on record: Capra hircus; assay: Effect on ICDH in goat cardiac mitochondria assessed as reversal of CuCl2/ascorbic acid induced reduction in Vmax at 66 uM using isocitrate as substrate after 1 hr by Lineweaver-Burk double reciprocal plot analysis; conditions: Heart
[15] = test system: Mitochondria; assay: as §1, with “oxidoreductase activity at 8.25 uM incubated for” for “oxidoreductase activity incubated for”, “spectrophotometric analysis (reference value: 47.82%)” for “spectrophotometric analysis”; type: functional, subcellular; parameters: scale not given: the % may be the effect or the level left; conditions: Capra hircus, Heart, Mitochrondria
[16] = Effect on cytochrome c oxidase activity in goat cardiac mitochondria at 8.25 to 66 uM incubated for 1 hr and measured at 10 secs time interval for 90 secs by spectrophotometric analysis; type: ADME, subcellular, Capra hircus, Heart, Mitochrondria
[17] = Induction of structural distortion in goat cardiac mitochondria at 66 uM after 1 hr by scanning electron microscopy; type: subcellular, Capra hircus, Heart, Mitochrondria
[18] = Binding affinity to Cu2+/ascorbate assessed as decrease in heat change at 66 uM in presence of ascorbic acid/CuCl2 by isothermal titration calorimetry
[19] = test system: Mitochondria; assay: Antioxidant activity in goat cardiac mitochondria assessed as reversal of CuCl2/ascorbic acid-induced reduction in alpha-KGDH level at 8.25 uM using alpha-ketoglutarate as substrate after 1 hr (reference value: 69.78%); type: functional, subcellular; parameters: scale not given: the % may be the effect or the level left; conditions: Capra hircus, Heart, Mitochrondria
[20] = test system: Mitochondria; assay: Antioxidant activity in goat cardiac mitochondria assessed as reversal of CuCl2/ascorbic acid-induced reduction in GSH level at 8.25 uM after 1 hr by DTNB reagent based method (reference value: 75.89%); type: functional, subcellular; parameters: scale not given: the % may be the effect or the level left; conditions: Capra hircus, Heart, Mitochrondria
[21] = test system: Mitochondria; assay: Antioxidant activity in goat cardiac mitochondria assessed as reversal of CuCl2/ascorbic acid-induced reduction in alpha-KGDH level at 66 uM using alpha-ketoglutarate as substrate after 1 hr relative to control; type: functional, subcellular; conditions: Capra hircus, Heart, Mitochrondria
[22] = Inhibition of succinate dehydrogenase in goat cardiac mitochondria assessed as effect on Vmax at 66 uM using succinate as substrate after 1 hr by Lineweaver-Burk double reciprocal plot analysis; parameters: species or system Capra hircus, Heart
[23] = Binding affinity to Cu2+ assessed as binding constant K2 at 66 uM in presence of ascorbic acid/CuCl2 by isothermal titration calorimetry
[24] = test system: Mitochondria; assay: Antioxidant activity in goat cardiac mitochondria assessed as reversal of CuCl2/ascorbic acid-induced reduction in GSH level at 16.5 uM after 1 hr by DTNB reagent based method relative to control; type: functional, subcellular; conditions: Capra hircus, Heart, Mitochrondria
[25] = test system: Mitochondria; assay: as §1, with “oxidoreductase activity at 16.5 uM incubated for” for “oxidoreductase activity incubated for”, “spectrophotometric analysis (reference value: 47.82%)” for “spectrophotometric analysis”; type: functional, subcellular; parameters: scale not given: the % may be the effect or the level left; conditions: Capra hircus, Heart, Mitochrondria
[26] = Antioxidant activity in pH 7.4 phosphate buffer assessed as DPPH radical scavenging activity at 64 uM after 30 mins by spectrophotometric analysis (reference value: 0.811 +/- 0.02%); type: functional
[27] = test system: Mitochondria; assay: Antioxidant activity in goat cardiac mitochondria assessed as reversal of CuCl2/ascorbic acid-induced reduction in ICDH level at 8.25 uM using isocitrate as substrate after 1 hr (reference value: 65.58%); type: functional, subcellular; parameters: scale not given: the % may be the effect or the level left; conditions: Capra hircus, Heart, Mitochrondria
[28] = test system: Mitochondria; assay: Antioxidant activity in goat cardiac mitochondria assessed as reversal of CuCl2/ascorbic acid-induced reduction in GSH level after 1 hr by DTNB reagent based method; type: functional, subcellular; conditions: Capra hircus; Heart; Mitochrondria
[29] = Binding affinity to Cu2+ assessed as binding constant K3 at 66 uM in presence of CuCl2 by isothermal titration calorimetry
[30] = species on record: Capra hircus; assay: Effect on PDH in goat cardiac mitochondria assessed as reversal of CuCl2/ascorbic acid induced reduction in Vmax at 66 uM using sodium pyruvate as substrate after 1 hr by Lineweaver-Burk double reciprocal plot analysis; conditions: Heart
[31] = Effect on manganese superoxide dismutase-like activity in cardiac mitochondria at 8.25 to 66 uM after 1 hr by pyrogallol autoxidation method relative to control; type: ADME, subcellular, Capra hircus, Heart, Mitochrondria; conditions: goat
[32] = test system: Mitochondria; assay: Antioxidant activity in goat cardiac mitochondria assessed as inhibition of CuCl2/ascorbic acid-induced protein carbonyl content at 16.5 uM after 1 hr by DNPH assay relative to control; type: functional, subcellular; conditions: Capra hircus, Heart, Mitochrondria
[33] = test system: Mitochondria; assay: Antioxidant activity in goat cardiac mitochondria assessed as inhibition of CuCl2/ascorbic acid-induced lipid peroxidation at 16.5 uM after 1 hr by thiobarbituric acid based UV-Visible spectrophotometric method (reference value: 60.11%); type: functional, subcellular; conditions: Capra hircus, Heart, Mitochrondria
[34] = Effect on alpha-KGDH levels in goat cardiac mitochondria at 8.25 to 66 uM using alpha-ketoglutarate as substrate after 1 hr; type: ADME, subcellular, Capra hircus, Heart, Mitochrondria
[35] = test system: Mitochondria; assay: Antioxidant activity in goat cardiac mitochondria assessed as reversal of CuCl2/ascorbic acid-induced reduction in ICDH level at 33 uM using isocitrate as substrate after 1 hr relative to control; type: functional, subcellular; conditions: Capra hircus, Heart, Mitochrondria

CCOC(=O)c1c(-c2ccc(O)c(OC)c2)cn2c1c(=O)oc1ccccc12
fold change (FC) [1]: 4.66 | inhibition (INH) [2]: Not Active | Activity [3]: Dose-dependent effect | fold change (FC) [4]: 5.12 | fold change (FC) [5]: 3.5 | inhibition [6]: 72.1% | Activity [7]: 94.5% | Activity [8]: Active | Activity [9]: 49.8% | inhibition [10]: 25.7% | Activity [11]: Non-Toxic | Activity [12]: Active | inhibition [13]: 12.3% | Activity [14]: Active | Activity [15]: 23.5% | Activity [16]: Non-Toxic | Activity [17]: Non-Toxic | Activity [18]: Active | Activity [19]: 43.1% | Activity [20]: 79.6% | fold change (FC) [21]: 4.62 | inhibition (INH) [22]: Not Active | K [23]: 5.07 ×10³ /M | fold change (FC) [24]: 3.06 | Activity [25]: 35.2% | Activity [26]: 82.3% | Activity [27]: 37.7% | Activity [28]: Dose-dependent effect | K [29]: 1.04 ×10⁵ /M | Activity [30]: Active | Activity [31]: Non-Toxic | inhibition [32]: 44% | inhibition [33]: 19.9% | Activity [34]: Non-Toxic | fold change (FC) [35]: 2.4
